Source: patent US12215106B2, “Pharmaceutical compounds and therapeutic methods” (RUTGERS, THE STATE UNIVERSITY OF NEW JERSEY, priority 2018, dated 2025)
Where a name gives a salt, the structure may show the parent alone.

Assays:
in vitro = in vitro ADME, mice; details: mouse; for recovery at 4 h, 5 µM: pH 7.4; for fraction unbound at 4 h, 5 μM: plasma
Method: (§1) The objective of this study was to evaluate protein binding test compounds in mice plasma. This was accomplished by spiking the test compounds at a concentration of 5 μM into mice plasma and dialyzing against buffer until equilibrium is achieved (4 hours). Analyte area ratios of the test compounds in plasma and buffer were determined to calculate unbound and bound percentages of compound to the plasma proteins.
(§2) Phosphate buffered saline pack (0.1 M sodium phosphate and 0.15 M sodium chloride, pH 7.2) was dissolved in 500 mL of deionized water and pH was adjusted to 7.4 with 0.5 N NaOH.
(§3) 1 mM stock solutions were prepared in DMSO and diluted 200-folds in mice plasma to prepare a concentration of 5 μM. The final DMSO concentration in plasma was 0.5%.
(§4) Rapid equilibrium dialysis was performed with a rapid equilibrium dialysis (RED) device containing dialysis membrane with a molecular weight cut-off of 8,000 Daltons. Each dialysis insert contains two chambers. The red chamber is for plasma while the white chamber is for buffer.
(§5) A 200 μL aliquot of warfarin and test compound at 5 (triplicates) were separately added to the plasma chamber and 350 μL of phosphate buffer saline (pH 7.4) was added to the buffer chamber of the inserts. After sealing the RED device with an adhesive film, dialysis was performed in incubator at 37° C. with shaking at 100 RPM for 4 hours.
(§6) A 50 μL aliquot of warfarin and test compounds were added to four 0.5 mL microfuse tubes. Two aliquots were frozen immediately (0 minute sample). The other two aliquots were incubated at 37° C. for 4 hours along with the RED device.
(§7) Following dialysis, an aliquot of 50 μL was removed from each well (both plasma and buffer side) and diluted with equal volume of opposite matrix (dialyzed with the other matrix) to nullify the matrix effect. Similarly, 50 μL of buffer was added to recovery and stability samples. An aliquot of 100 μL was submitted for LCMS/MS analysis.
(§8) A 25 μL aliquot of warfarin and test compounds were crashed with 100 μL of acetonitrile containing internal standard (glipizide) and vortexed for 5 minutes. The samples were centrifuged at 4000 RPM at 4° C. for 10 min and 100 μL of supernatant was submitted for LC-MS/MS analysis. Samples were monitored for parent compound in MRM mode using LC-MS/MS.
(§9) The peak area ratios (analyte versus internal standard) obtained were used to determine the fraction of compound bound to plasma proteins.

mice plasma = experiment: in vitro; format: in vitro ADME; details: mouse, plasma, 4 h, 5 μM
Method: as §1, §2, §3, §4, §5, §6, §7, §8, §9

Caco-2 cells = experiment: Bi-directional Caco-2 transport assay; format: in vitro ADME; details: for P-gp substrate: Caco-2; for Efflux Ratio (B-A/A-B) / Papp (A-B) / Papp (B-A): human, Caco-2, 90 min, 5 μM; for Papp (A-B) / Papp (B-A): pH 7.4
Method: The objective of the study is to evaluate test compounds as substrates for efflux transporter using Caco-2 cell line. To assess the functionality of P-glycoprotein (P-gp), loperamide was run as a positive control (Apical and basolateral HBSS pH 7.4).
5 mM DMSO stock of test compounds and loperamide was diluted 1000-folds in HBSS having 0.1% DMSO to prepare concentrations of 5 μM.
Caco-2 cells were grown in DMEM (20% FBS) until 85-90% confluence. After attaining required confluence, cells were trypsinized and seeded into 24 well millcell plates at a density of 0.6×10^5 cells/insert. The plates were maintained for 21 days at 37° C. in CO2 incubator with change of medium every alternative day. Monolayer integrity was monitored by measuring Trans-epithelial electrical resistance (TEER) from day 15.
Caco-2 cell monolayer was washed twice with HBSS and incubated for 40 min in CO2 incubator. TEER values were measured and wells showing TEER values above 230 ohms·cm^2 were taken for experiments. The study was performed in loperamide and test compounds by adding 400 μL of loperamide prepared in HBSS in apical (A-B transport) followed by addition of 800 μL of HBSS on basal side and for B-A transport 800 μL of loperamide prepared in HBSS was dosed in basal followed by addition of 400 μL HBSS on apical side. At selected time points (0, 15, 30, 60 and 90 mins) an aliquot of 50 μL was collected from the receiver compartment for determination of test compound concentrations. The volume withdrawn was replaced immediately with HBSS buffer. TEER was measured at the end to the experiment to confirm any damage of monolayer while performing experiment. Those wells with TEER not meeting the criteria were excluded from the study.
A 50 μL of test compound samples collected at respective time points and submitted for LC-MS/MS analysis.
The apparent permeability (Papp) (A−B & B−A) of test compounds and positive control was calculated using the following formula: Papp=dQ/dt/A·Co where, dQ/dt=linear slope of test compound concentration in receptor chamber with time (0, 15, 30, 60 and 90 min) after correcting for dilution; A=area of the filter (0.7 cm^2); and Co=initial concentration of compound in the donor compartment.
Efflux ratio (RE) was calculated using the following equation: RE=PB/A/PA/B where PB/A and PA/B represent the apparent permeability of test compound from the basal to apical and apical to basal side of cell monolayer.
Recovery represents: (amount of the compound recovered from donor at end of incubation+cumulative amount of compound in acceptor at end of incubation+amount of the compound in cell lysate or assay well)/amount of compound in donor solution at time zero*100
Compounds are classified based on Papp values as follows:
A compound having efflux ratio of >2 is considered as having potential as a P-gp substrate.

Cc1nc2ccccn2c1-c1csc(Nc2ccc3c(c2)OC(F)(F)O3)n1 [Compound 16, N-(2,2-difluorobenzo[d][1,3]dioxol-5-yl)-4-(2-methylimidazo[1,2-a]pyridin-3-yl)thiazol-2-amine hydrochloride]
recovery at 4 h, 5 µM (in vitro; Plasma): 117% | fraction unbound at 4 h, 5 μM (in vitro; pH 7.4, % Bound Mean ± SD): 0.01 | fraction unbound at 4 h, 5 μM (in vitro; pH 7.4, % Bound R1): 0.01 | fraction unbound at 4 h, 5 μM (in vitro; pH 7.4, % Bound R2): 0.01 | fraction unbound at 4 h, 5 μM (in vitro; pH 7.4, % Bound R3): 0.011 | fraction unbound at 4 h, 5 μM (in vitro; pH 7.4, PPB at 4 h): 0.24 | % compound remaining at 4 hrs (mice plasma): 76% | P-gp substrate (Caco-2 cells): not P-gp substrate | Efflux Ratio (B-A/A-B) (Caco-2 cells): 0.9

[2H]C1([2H])Oc2ccc(Nc3nc(-c4c(C)nc5ccccn45)cs3)cc2O1 [Compound 17, N-(benzo[d][1,3]dioxol-5-yl-2,2-d2)-4-(2-methylimidazo[1,2-c]pyridin-3-yl)thiazol-2-amine hydrochloride]
recovery at 4 h, 5 µM (in vitro): 124% | fraction unbound at 4 h, 5 μM (in vitro; pH 7.4, % Bound Mean ± SD): 0.006 | fraction unbound at 4 h, 5 μM (in vitro; pH 7.4, % Bound R1): 0.008 | fraction unbound at 4 h, 5 μM (in vitro; pH 7.4, % Bound R2): 0.004 | fraction unbound at 4 h, 5 μM (in vitro; pH 7.4, % Bound R3): 0.005 | fraction unbound at 4 h, 5 μM (in vitro; pH 7.4, PPB at 4 h): 0.25 | % compound remaining at 4 hrs (mice plasma): 75% | P-gp substrate (Caco-2 cells): not P-gp substrate | Efflux Ratio (B-A/A-B) (Caco-2 cells): 1.3

COc1c(F)cc(Nc2nc(-c3c(C)nc4ccccn34)cs2)cc1F [Compound 14, hydrochloride]
recovery at 4 h, 5 µM (in vitro): 124% | fraction unbound at 4 h, 5 μM (in vitro; pH 7.4, % Bound Mean ± SD): 0.003 | fraction unbound at 4 h, 5 μM (in vitro; pH 7.4, % Bound R1): 0.002 | fraction unbound at 4 h, 5 μM (in vitro; pH 7.4, % Bound R2): 0.003 | fraction unbound at 4 h, 5 μM (in vitro; pH 7.4, % Bound R3): 0.002 | fraction unbound at 4 h, 5 μM (in vitro; pH 7.4, PPB at 4 h): 0.24 | % compound remaining at 4 hrs (mice plasma): 76% | Papp (A-B) (Caco-2 cells): 0.0 ± 0.0 10^−6 cm/sec | Papp (B-A) (Caco-2 cells): 0.0 ± 0.0 10^−6 cm/sec

[2H]C([2H])([2H])Oc1ccc(Nc2nc(-c3c(C)nc4ccccn34)cs2)cc1 [Compound 15, N-(4-(methoxy-d3)phenyl)-4-(2-methylimidazo[1,2-c]pyridin-3-yl)thiazol-2-amine hydrochloride]
recovery at 4 h, 5 µM (in vitro; Plasma): 114% | fraction unbound at 4 h, 5 μM (in vitro; pH 7.4, % Bound Mean ± SD): 0.001 | fraction unbound at 4 h, 5 μM (in vitro; pH 7.4, % Bound R1): 0.001 | fraction unbound at 4 h, 5 μM (in vitro; pH 7.4, % Bound R2): 0.001 | fraction unbound at 4 h, 5 μM (in vitro; pH 7.4, % Bound R3): 0.001 | fraction unbound at 4 h, 5 μM (in vitro; pH 7.4, PPB at 4 h): 0.1 | % compound remaining at 4 hrs (mice plasma): 90% | Papp (A-B) (Caco-2 cells): 0.0 ± 0.0 10^−6 cm/sec | Papp (B-A) (Caco-2 cells): 0.0 ± 0.0 10^−6 cm/sec
